Data set [1] can be described thus: Sweetness determination by a panel of experts: aqueous solutions matched to sucrose standard solutions (sucrose equivalence). The arrangement: key to Sucrose equivalence: weight % sucrose solution of matched sweetness. The source says:
A taste procedure for determination of sweetness merely involves the determination of sucrose equivalency. Sucrose equivalence for sweeteners are readily determined. The amount of a sweetener that is equivalent to a given weight percent sucrose can be determined by having a panel of tasters taste solutions of a sweetener at known concentrations and match its sweetness to standard solutions of sucrose.
The following examples further illustrate the invention. In the following examples, the sensory evaluation were obtained by a panel of experts using known weight percent aqueous solutions of the exemplified compounds and were matched to sucrose standard solutions.

The conditions of data set [2]: prior art statement; cited from earlier work.
Data set [3] in a line: Stability (half life) in buffer solutions at pH 3, 5 and 7 at 50, 75 or 100 °C. It is filed as physicochemical. The settings on record: for half-life: buffer; for Stability in buffered solutions: buffered solutions at pH 3, 5 and 7; for Stability compared with aspartame: buffered solutions studied, except pH 3 at 100 °C. As for the experimental part:
α-L-Aspartyl-2-methylalanine[β(+)Fenchyl]ester (Example 9), α-L-Aspartyl-D-alanine[β(+)Fenchyl]ester, (Example 10) and aspartame L-Aspartyl-L-phenylalanine methyl ester were studied for stability at pH3, 5 and 7 in buffer solutions maintained at 50° C., 75° C., or 100° C., the following results were obtained: […]

[4] abbreviates: concentration 0.005 (weight percent aqueous solution).
[5] abbreviates: concentration 0.010 (weight percent aqueous solution).
Setting [6] is: concentration 0.025 (weight percent aqueous solution).
[7] abbreviates: concentration 0.05 (weight percent aqueous solution).
The mark [8] stands for this setting: concentration 0.00012 (weight percent aqueous solution).
Setting [9] is: concentration 0.00024 (weight percent aqueous solution).
The mark [10] stands for this setting: concentration 0.00047 (weight percent aqueous solution).
Where [11] appears, read: concentration 0.00092 (weight percent aqueous solution).
The mark [12] stands for this setting: concentration 0.00185 (weight percent aqueous solution).
Setting [13] is: concentration 0.0025 (weight percent aqueous solution).
Setting [14] is: concentration 0.00375 (weight percent aqueous solution).
Where [15] appears, read: concentration 0.0075 (weight percent aqueous solution).
The mark [16] stands for this setting: concentration 0.01 (weight percent aqueous solution).
Where [17] appears, read: pH 3, buffer solution, 50 °C, pH 3.
The mark [18] stands for this setting: pH 3, buffer solution, 75 °C, pH 3.
Where [19] appears, read: pH 3, buffer solution, 100 °C, pH 3.
[20] abbreviates: pH 5, buffer solution, 50 °C, pH 5.
[21] abbreviates: pH 5, buffer solution, 75 °C, pH 5.
[22] abbreviates: pH 5, buffer solution, 100 °C, pH 5.
The mark [23] stands for this setting: pH 7, buffer solution, 100 °C, pH 7.
The mark [24] stands for this setting: concentration 0.00692 (so in the source), weight percent aqueous solution.

“And” between values parts separate entries of the source, which are not always exact repeats. Equal entries are not always repeated. Where a SMILES comes first, the peptide text is derived from it. The star is where a group is joined. tBu = CC(C)(C)*

For the compound `CC(C)(NC(=O)[C@@H](N)CC(=O)O)C(=O)OC1C(C)(C)CCC1(C)C` [Example 2, N-(L-Aspartyl)-2-methylalanine(2,2,5,5-tetramethyl-1-cyclopentyl)ester], the Sucrose equivalence came to 2.00 in data set [1] (setting [4]), 3.25 in data set [1] (setting [5]) and 5.75 in data set [1] (setting [6]).
Consider `C[C@@H](NC(=O)[C@@H](N)CC(=O)O)C(=O)OC1C(C)(C)CCC1(C)C` [Example 1, L-Aspartyl-D-alanine(2,2,5,5-tetramethyl-1-cyclopentyl)ester], for which the Sucrose equivalence was 2.5 in data set [1] (setting [4]), 3.7 in data set [1] (setting [5]), 7.7 in data set [1] (setting [6]) and 8.0 in data set [1] (setting [7]).
For the compound `CCC(C)(C)OC[C@H](NC(=O)[C@@H](N)CC(=O)O)C(=O)OC` [L-aspartyl-O-t-amyl-L-serine methyl ester], the “Sweetness (in words)” value in data set [2] was “significant sweetness”.
On to `C[C@@H](NC(=O)[C@@H](N)CC(=O)O)C(=O)OC1C2(C)CCC(C2)C1(C)C` (single isomer, unassigned) [Example 10, α-L-Aspartyl-D-alanine[β(+)Fenchyl]ester], for which the Sucrose equivalence in data set [1] (setting [8]) stood at 0.6%; in data set [1] (setting [9]), 1.42%; in data set [1] (setting [10]) it was 2.28%; in data set [1] (setting [11]), 4.7%; in data set [1] (setting [12]), 6.5%; in data set [1] (setting [13]) it was 6.0%. The Sucrose equivalence was 8.6% in data set [1] (setting [14]); 9.3% and 10.0% in data set [1] (setting [4]); 9.0% in data set [1] (setting [15]); 11.0% in data set [1] (setting [16]). The “Sweetness relative to sucrose” value is 5000 × Sucrose in data set [1] (setting [8]); 5900 × Sucrose in data set [1] (setting [9]); 4900 × Sucrose in data set [1] (setting [10]); 5100 × Sucrose in data set [1] (setting [11]); 3500 × Sucrose in data set [1] (setting [12]); 2400 × Sucrose in data set [1] (setting [13]). Moreover, the “Sweetness relative to sucrose” value in data set [1] (setting [14]) is 2300 × Sucrose; in data set [1] (setting [4]), 1860 × Sucrose and 2000 × Sucrose; in data set [1] (setting [15]) it was 1200 × Sucrose; in data set [1] (setting [16]) it was 1100 × Sucrose. The half-life in data set [3] (setting [17]) was 528 h; in data set [3] (setting [18]) it was 31.2 h; in data set [3] (setting [19]), 3.9 h; in data set [3] (setting [20]), 3140 h; in data set [3] (setting [21]), 122 h; in data set [3] (setting [22]) it was 14 h. In addition, in data set [3] (setting [23]), the half-life is 10 h. The “Stability in buffered solutions” value in data set [3] is given as “outstanding stability”. The “Stability compared with aspartame” value in data set [3] was “better stability”.
Turning to `CC1CCC(C)C1OC(=O)C1(NC(=O)[C@@H](N)CC(=O)O)CC1` (stereo partly drawn) [L-Aspartyl-1-aminocyclopropyl-1-carboxylicacid, 2,5-dimethyl-1-cyclopentyl ester], the Sucrose equivalence stood at 1.0 in data set [1] (setting [4]), 2.2 in data set [1] (setting [5]) and 3.3 in data set [1] (setting [6]). The figures for the “Sweetness relative to sucrose” value in data set [1] (setting [4]), in data set [1] (setting [16]) and in data set [1] (setting [6]) were 200 × Sucrose, 217 × Sucrose and 133 × Sucrose, respectively.
With `C[C@@H](NC(=O)[C@@H](N)CC(=O)O)C(=O)OC1(C)CCCC1` [Example 6, N-L-Aspartyl-D-alanine (1-methyl-1-cyclopentyl)ester], in data set [1] (setting [7]), the Sucrose equivalence turned out to be 2.0 and the “Sweetness relative to sucrose” value is on record as 40 × Sucrose.
Turning to `COC(=O)[C@H](COC(C)(C)C)NC(=O)[C@@H](N)CC(=O)O` [L-aspartyl-O-t-butyl-L-serine methyl ester] (H-Asp-Ser(tBu)-OMe), the “Sweetness (in words)” value in data set [2] is reported as “significant sweetness”.
Regarding `COC(=O)[C@H](Cc1ccccc1)NC(=O)[C@@H](N)CC(=O)O` [Aspartame, L-Aspartyl-L-phenylalanine methyl ester, reference compound] (H-Asp-Phe-OMe), the half-life in data set [3] (setting [18]) was 21.6 h; in data set [3] (setting [19]), 5.3 h; in data set [3] (setting [21]), 26.4 h; in data set [3] (setting [22]), 5.3 h; in data set [3] (setting [23]), less than 1 h. Also, in data set [3] (pH 3, 100 °C, between Example 9 and Example 10), the “Stability compared with Example 9 and Example 10” value is “intermediate stability”.
For `CC1CCC(C)C1OC(=O)[C@@H](C)NC(=O)[C@@H](N)CC(=O)O` (stereo partly drawn) [Example 7, N-L-Aspartyl-D-alanine(2,5-dimethylcyclopentyl)ester], the Sucrose equivalence came out at 1.16 in data set [1] (setting [4]), 2.3 in data set [1] (setting [5]), 4.82 in data set [1] (setting [6]) and 7.50 in data set [1] (setting [7]). Further, the “Sweetness relative to sucrose” value is 233 × Sucrose in data set [1] (setting [4]), 230 × Sucrose in data set [1] (setting [16]), 193 × Sucrose in data set [1] (setting [6]) and 150 × Sucrose in data set [1] (setting [7]).
For `CC(C)(NC(=O)[C@@H](N)CC(=O)O)C(=O)OC1C2(C)CCC(C2)C1(C)C` (single isomer, unassigned) [Example 9, α-L-Aspartyl-2-methylalanine[β(+)Fenchyl]ester], the Sucrose equivalence in data set [1] (setting [12]) was 5.7%; in data set [1] (setting [13]), 6.0% and 4.3% and 4.25%; in data set [1] (setting [14]), 6.0%; in data set [1] (setting [4]) it was 7.37% and 7.0% and 6.0%; in data set [1] (setting [24]), 3.5%; in data set [1] (setting [15]), 8.5%. The Sucrose equivalence in data set [1] (setting [16]) was 9.25% and 9.0%. Further, the “Sweetness relative to sucrose” value in data set [1] (setting [12]) was 3100 × Sucrose; in data set [1] (setting [13]), 2400 × Sucrose and 1733 × Sucrose and 1700 × Sucrose; in data set [1] (setting [14]), 1600 × Sucrose; in data set [1] (setting [4]) it was 1475 × Sucrose and 1400 × Sucrose and 1200 × Sucrose; in data set [1] (setting [24]), 3800 × Sucrose; in data set [1] (setting [15]) it was 1133 × Sucrose. The “Sweetness relative to sucrose” value in data set [1] (setting [16]) is 925 × Sucrose and 900 × Sucrose. For the same compound, the half-life in data set [3] (setting [17]) was 1540 h; in data set [3] (setting [18]), 72 h; in data set [3] (setting [19]), 8.4 h; in data set [3] (setting [20]), 3600 h; in data set [3] (setting [21]), 360 h; in data set [3] (setting [22]) it was 33 h. Also, the half-life in data set [3] (setting [23]) was 67 h. Moreover, in data set [3] (buffered solutions), the “Stability compared with Example 10” value was “more stable”. The “Stability in buffered solutions” value in data set [3] was “outstanding stability”. Besides, the “Stability compared with aspartame” value in data set [3] was “better stability”.

As usually defined, the half-life is how long it takes for the measured level to halve.

The values above are taken from US4822635A, “Sweetening with L-aminodicarboxylic acid esters” (General Foods Corporation, priority 1988, dated 1989).
